Assay results reported in US10265322B2, “Use of PAR-1 antagonists for preventing and/or treating pelvi-perineal functional pathological conditions” (PIERRE FABRE MEDICAMENT, priority 2013, dated 2019).
Counter-ions that a name gives are not always drawn.

Columns and labels:
PAR [1] = experiment: trypsin-induced contraction of rat-isolated bladder strips, naive animals; details: for effect on trypsin-induced bladder contraction at the other concentrations: other concentrations tested; for amplitude of bladder contraction: trypsin 3000 BAEE U/mL; for reduction in bladder contraction: trypsin
Text: (§1) Purpose of the experiment: Evaluate the role of 3-(2-Chloro-phenyl)-1-[4-(4-fluoro-benzyl)-piperazin-1-yl]-propenone on the amplitude of bladder contraction induced by trypsin and TFLLR. The experiment was led in parallel on naïve bladders and on bladders subjected to inflammation procedure. The effect of the compound of the invention was compared with that of a reference PAR1 antagonist: compound SCH203099, (Ahn et al. Biochem. Pharmacol. 60(10:1425-1434, 2000).
(§2) In naïve rats (no administration of cyclophosphamide) or 24 hours after administration of cyclophosphamide, the animals were anaesthetised with pentobarbital (60 mg/kg) and euthanized. The bladder was rapidly taken and placed in modified Krebs-Henseleit oxygenated solution having the following composition (mM): NaCl 114; KCl 4.7; CaCl2 2.5; MgSO4 1.2; KH2PO4 1.2; NaHCO3 25 and glucose 11.7 (pH 7.4 with 95% O2 and 5% CO2). The bladder was cleaned of conjunctive tissue, weighed, the distal and proximal portions removed and the bladder cut in longitudinal direction into two equal strips. These strips were attached with silk thread and immersed in a 10 mL isolated organ bath (EMKA Technologies) containing the Krebs-Henseleit oxygenated solution with 95%:5% mixture of O2/CO2 held at 37° C. The bladder strips were connected via the silk thread to isometric sensors (IT50 model, EMKA Technologies) connected to amplifiers (EMKA Technologies). Contractile responses were recorded using IOX2® software (EMKA Technologies).
(§3) For an initial stabilisation period of at least 90 minutes, rinsing operations were carried out every 15 minutes and the tensioning of each bladder strip readjusted to 1.0 g. The strips were then exposed to 50 mM KCl to verify their viability. If the contraction amplitude of the strips was less than 1.0 g, the tissues were discarded and not included in the experiment. After a second stabilisation and washing period of at least 45 minutes, a concentration of the compound of the invention or of the reference product (SCH203099) or of the vehicle was incubated for 30 minutes. A concentration-accumulative response curve to the selective agonist PAR1, to TFLLR (0.1 μM to 0.1 mM) or to trypsin (10 U to 10,000 BAEE U/mL) was plotted.
(§4) These experiments were conducted on naive bladders. The protocol followed was the same as the protocol described in Example 1.

PAR [2] = experiment: trypsin-induced contraction of rat-isolated bladder strips, inflammation conditions (cyclophosphamide); details: for amplitude of bladder contraction / reduction in bladder contraction: inflamed rat bladder; for amplitude of bladder contraction: trypsin 3000 BAEE U/mL; for reduction in bladder contraction: trypsin
Text: as §1
(§5) To induce inflammation of the bladder, cyclophosphamide was bilaterally injected into the rats (Female Wistar Han rats weighing 250 to 275 g on the day of the experiment, obtained from Charles River laboratory, France) via intraperitoneal route at a dose of 150 mg/kg in a final volume of 5 mL/kg.
as §2, §3

PAR1 [3] = target: T1, PAR1 (Rattus norvegicus, UniProt P26824); experiment: TFLLR-induced contraction of rat-isolated bladder strips, naive animals
T1 construct: the bladder cut in longitudinal direction into two equal strips; from tissue; host or cells: isolated bladder strips of female Wistar Han rats (naive or 24 h after cyclophosphamide)
T1 sequence (P26824 22-432): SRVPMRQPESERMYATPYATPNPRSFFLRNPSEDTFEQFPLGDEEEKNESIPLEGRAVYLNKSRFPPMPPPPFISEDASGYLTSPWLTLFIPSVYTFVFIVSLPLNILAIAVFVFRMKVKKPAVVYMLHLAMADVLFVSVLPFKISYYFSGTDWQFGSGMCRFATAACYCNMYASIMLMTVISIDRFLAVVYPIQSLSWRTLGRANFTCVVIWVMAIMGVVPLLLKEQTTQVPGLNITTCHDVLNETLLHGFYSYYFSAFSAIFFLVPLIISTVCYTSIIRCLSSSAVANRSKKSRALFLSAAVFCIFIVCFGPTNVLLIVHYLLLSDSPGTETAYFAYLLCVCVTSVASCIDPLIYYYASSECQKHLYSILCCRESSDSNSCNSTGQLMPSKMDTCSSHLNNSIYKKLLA
Text: as §1, §2, §3, §4

PAR1 [4] = target: T1, PAR1; experiment: TFLLR-induced contraction of rat-isolated bladder strips, inflammation conditions (cyclophosphamide); details: inflamed rat bladder, 100 μM TFLLR
Text: as §1, §5, §2, §3

[5] = solubility of the compound in the organ bath experiment; type: physicochemical; details: noted at 10 μM and 30 μM in organ bath

amplitude of bladder contraction (PAR1 [3]; 100 μM TFLLR, compound 10 nM) [g] | reduction in bladder contraction (PAR1 [3]; 100 μM TFLLR, compound 10 nM) | amplitude of bladder contraction (PAR1 [3]; 100 μM TFLLR, compound 1 μM) [g] | Structure (SMILES) | effect on trypsin-induced bladder contraction versus vehicle (PAR [1]; compound 10 μM) | effect on trypsin-induced bladder contraction at the other concentrations (PAR [1]) | amplitude of bladder contraction (PAR [1]; compound 10 μM) [g] | amplitude of bladder contraction (PAR [2]; compound 10 μM) [g] | amplitude of bladder contraction (PAR [2]; compound 30 μM) [g] | reduction in bladder contraction (PAR [2]; compound 10 μM) [%] | reduction in bladder contraction (PAR [2]; compound 30 μM) | amplitude of bladder contraction (PAR1 [3]; 100 μM TFLLR, compound 10 μM) [g] | amplitude of bladder contraction (PAR1 [4]; compound 10 μM) [g] | reduction in bladder contraction (PAR1 [4]; compound 10 μM) [%] | amplitude of bladder contraction (PAR1 [4]; compound 30 μM) [g] | reduction in bladder contraction / contractile response (PAR1 [4]; compound 30 μM) [%] | amplitude of bladder contraction (PAR [1]; compound 3 μM) [g] | effect on trypsin-induced bladder contraction versus vehicle (PAR [1]; compound 30 μM) | other results
 |  |  | CNc1nc(NC2CC2)nc2ccc3c(ccn3Cc3ccc(C(C)C)cc3)c12 [SCH203099] | divided by two | nothing was observed | 0.48 ± 0.11 | 1.77 ± 0.38 | 1.04 ± 0.16 | 35 | 60% | 0.26 ± 0.07 | 0.73 ± 0.10 | 35 | 0.49 ± 0.08 | 55 |  |  | amplitude of bladder contraction (PAR [2]; compound 3 μM): 2.05 ± 0.53 g; reduction in bladder contraction (PAR [2]; compound 3 μM): 25%; effect on TFLLR-induced bladder contraction versus vehicle (PAR1 [3]; compound 10 μM): divided by two; effect on TFLLR-induced bladder contraction at the other concentrations (PAR1 [3]; other concentrations tested): nothing was observed; reduction in bladder contraction (PAR1 [4]; compound 3 μM (no conclusive effect)): 10%
0.14 ± 0.02 | 75% | 0.04 ± 0.03 | CCOC(=O)N[C@@H]1CC[C@@H]2[C@@H](C1)C[C@H]1C(=O)O[C@H](C)[C@H]1[C@H]2/C=C/c1ccc(-c2cccc(F)c2)cn1 [vorapaxar, ethyl N-[(3R,3aS,4S,4aR,7R,8aR,9aR)-4-[(E)-2-[5-(3-fluorophenyl)-2-pyridyl]vinyl]-3-methyl-1-oxo-3a,4,4a,5,6,7,8,8a,9,9a-decahydro-3H-benzo[f]isobenzofuran-7-yl]carbamate] | lesser efficacy |  |  |  |  |  |  |  |  |  |  |  | 0.79 ± 0.14 |  | amplitude of bladder contraction (PAR1 [3]; 100 μM TFLLR, compound 3 nM): 0.31 ± 0.12 g; reduction in bladder contraction (PAR1 [3]; 100 μM TFLLR, compound 3 nM): ~50%; effect on TFLLR-induced bladder contraction (PAR1 [3]; compound from 1 μM): completely abolishes; solubility [5]: low solubility
 |  |  | O=C(/C=C/c1ccccc1Cl)N1CCN(Cc2ccc(F)cc2)CC1 [compound of the invention, 3-(2-Chloro-phenyl)-1-[4-(4-fluoro-benzyl)-piperazin-1-yl]-propenone] |  | nothing was observed |  | 1.76 ± 0.30 | 0.92 ± 0.17 | 35 | about 70% | 0.18 ± 0.04 | 0.45 ± 0.13 | 60 | 0.11 ± 0.04 | 90 |  | divided by two | amplitude of bladder contraction (PAR [1]; compound 30 μM): 0.55 ± 0.24 g; effect on trypsin-induced bladder contraction (PAR [2]; inflamed rat bladder (cyclophosphamide), compound up to 3 μM): inactive; amplitude of bladder contraction (PAR1 [3]; 100 μM TFLLR, compound 3 μM): 0.33 ± 0.05 g; reduction in bladder contraction (PAR1 [3]; 100 μM TFLLR, compound 3 μM): 45%; reduction in bladder contraction (PAR1 [3]; 100 μM TFLLR, compound 10 μM): 70%; amplitude of bladder contraction (PAR1 [3]; 100 μM TFLLR, compound 30 μM): 0.00 ± 0.04 g; effect on TFLLR-induced bladder contraction (PAR1 [3]; compound 1 μM): inactive; effect on TFLLR-induced bladder contraction (PAR1 [3]; compound 30 μM): completely abolished; reduction in bladder contraction (PAR1 [4]; compound up to 3 μM (no conclusive effect)): 10%
0.21 ± 0.03 | more than 50% | 0.08 ± 0.03 | CCOc1cc2c(c(F)c1OCC)C(=N)N(CC(=O)c1cc(N3CCOCC3)c(OC)c(C(C)(C)C)c1)C2 [atopaxar, [(1-(3-tert-butyl-4-methoxy-5-morpholinophenyl)-2-(5,6-diethoxy-fluoro-1-imino-1,3-dihydro-2H-isoindol-2yl)ethanone hydrobromide] |  |  | 0.36 ± 0.15 |  |  |  |  |  |  |  |  |  | 0.74 ± 0.19 | completely abolishes | effect on trypsin-induced bladder contraction versus vehicle (PAR [1]; compound 1 μM): slight reduction; amplitude of bladder contraction (PAR [1]; compound 1 μM): 1.02 ± 0.20 g; reduction in bladder contraction (PAR [1]; compound 3 μM): 38%; reduction in bladder contraction (PAR [1]; compound 10 μM): 70%; decrease of bladder contraction (PAR1 [3]; 100 μM TFLLR, compound 1 μM): more than 80%
